Reference: PubChem BioAssay (NCI)
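In this assay, cells in 96-well plates receive the compound at five concentrations for 48 hours. Endpoints are linearly interpolated between the surrounding concentrations. Definition used: TGI = concentration required for complete inhibition of growth.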

Tests used:
Test in all cases: NCI-60 cell line screen, 48 h
U251 CNS = tested on: U251 CNS
SF-539 CNS = tested on: SF-539 CNS
T-47D breast = tested on: T-47D breast
OVCAR-5 ovarian = tested on: OVCAR-5 ovarian
HOP-62 NSCLC = tested on: HOP-62 NSCLC
KM12 colon = tested on: KM12 colon
OVCAR-8 ovarian = tested on: OVCAR-8 ovarian
K-562 leukemia = tested on: K-562 leukemia
OVCAR-3 ovarian = tested on: OVCAR-3 ovarian
NCI-H460 lung = tested on: NCI-H460 lung
MCF7 breast = tested on: MCF7 breast
UACC-62 melanoma = tested on: UACC-62 melanoma
HOP-92 NSCLC = tested on: HOP-92 NSCLC
UO-31 renal = tested on: UO-31 renal
SF-268 CNS = tested on: SF-268 CNS
CCRF-CEM leukemia = tested on: CCRF-CEM leukemia
786-0 renal = tested on: 786-0 renal
SN12C renal = tested on: SN12C renal
CAKI-1 renal = tested on: CAKI-1 renal
EKVX NSCLC = tested on: EKVX NSCLC
SNB-19 CNS = tested on: SNB-19 CNS
M14 melanoma = tested on: M14 melanoma
IGROV1 ovarian = tested on: IGROV1 ovarian
COLO 205 colon = tested on: COLO 205 colon
MOLT-4 leukemia = tested on: MOLT-4 leukemia
MALME-3M melanoma = tested on: MALME-3M melanoma
BT-549 breast = tested on: BT-549 breast
HCT-15 colon = tested on: HCT-15 colon
SF-295 CNS = tested on: SF-295 CNS
HL-60(TB) leukemia = tested on: HL-60(TB) leukemia
NCI-H522 lung = tested on: NCI-H522 lung
HCT-116 colon = tested on: HCT-116 colon
UACC-257 melanoma = tested on: UACC-257 melanoma
DU-145 prostate = tested on: DU-145 prostate
SNB-75 CNS = tested on: SNB-75 CNS
SK-MEL-2 melanoma = tested on: SK-MEL-2 melanoma
ACHN renal = tested on: ACHN renal
A498 renal = tested on: A498 renal
SW-620 colon = tested on: SW-620 colon
HT29 colon = tested on: HT29 colon
PC-3 prostate = tested on: PC-3 prostate
NCI-H23 lung = tested on: NCI-H23 lung
A549 NSCLC = tested on: A549 NSCLC
RXF 393 renal = tested on: RXF 393 renal
MDA-N = tested on: MDA-N
SR leukemia = tested on: SR leukemia
NCI-H226 lung = tested on: NCI-H226 lung
SK-MEL-28 melanoma = tested on: SK-MEL-28 melanoma
NCI/ADR-RES ovarian = tested on: NCI/ADR-RES ovarian
MDA-MB-231 breast = tested on: MDA-MB-231 breast
RPMI-8226 leukemia = tested on: RPMI-8226 leukemia
SK-OV-3 ovarian = tested on: SK-OV-3 ovarian
OVCAR-4 ovarian = tested on: OVCAR-4 ovarian
HCC-2998 colon = tested on: HCC-2998 colon
MDA-MB-435 = tested on: MDA-MB-435
SK-MEL-5 melanoma = tested on: SK-MEL-5 melanoma
TK-10 renal = tested on: TK-10 renal
LOX IMVI melanoma = tested on: LOX IMVI melanoma

O=c1c2cc(-c3ccccc3)cnc2sn1-c1ccc([N+](=O)[O-])cc1
TGI (U251 CNS): 95.1 µM | TGI (SF-539 CNS): > 100 µM | TGI (T-47D breast): > 100 µM | TGI (OVCAR-5 ovarian): > 100 µM | TGI (HOP-62 NSCLC): 81.7 µM | TGI (KM12 colon): > 100 µM | TGI (OVCAR-8 ovarian): > 100 µM | TGI (K-562 leukemia): > 100 µM | TGI (OVCAR-3 ovarian): 60.2 µM | TGI (NCI-H460 lung): > 100 µM | TGI (MCF7 breast): > 100 µM | TGI (UACC-62 melanoma): > 100 µM | TGI (HOP-92 NSCLC): > 100 µM | TGI (UO-31 renal): > 100 µM | TGI (SF-268 CNS): > 100 µM | TGI (CCRF-CEM leukemia): > 100 µM | TGI (786-0 renal): > 100 µM | TGI (SN12C renal): > 100 µM | TGI (CAKI-1 renal): > 100 µM | TGI (EKVX NSCLC): > 100 µM | TGI (SNB-19 CNS): > 100 µM | TGI (M14 melanoma): > 100 µM | TGI (IGROV1 ovarian): > 100 µM | TGI (COLO 205 colon): > 100 µM | TGI (MOLT-4 leukemia): > 100 µM | TGI (MALME-3M melanoma): > 100 µM | TGI (BT-549 breast): > 100 µM | TGI (HCT-15 colon): > 100 µM | TGI (SF-295 CNS): > 100 µM | TGI (HL-60(TB) leukemia): > 100 µM | TGI (NCI-H522 lung): 75.4 µM | TGI (HCT-116 colon): > 100 µM | TGI (UACC-257 melanoma): > 100 µM | TGI (DU-145 prostate): > 100 µM | TGI (SNB-75 CNS): > 100 µM | TGI (SK-MEL-2 melanoma): > 100 µM | TGI (ACHN renal): > 100 µM | TGI (A498 renal): > 100 µM | TGI (SW-620 colon): > 100 µM | TGI (HT29 colon): > 100 µM | TGI (PC-3 prostate): > 100 µM | TGI (NCI-H23 lung): > 100 µM | TGI (A549 NSCLC): > 100 µM | TGI (RXF 393 renal): 82.1 µM | TGI (MDA-N): > 100 µM | TGI (SR leukemia): > 100 µM | TGI (NCI-H226 lung): > 100 µM | TGI (SK-MEL-28 melanoma): > 100 µM | TGI (NCI/ADR-RES ovarian): > 100 µM | TGI (MDA-MB-231 breast): > 100 µM | TGI (RPMI-8226 leukemia): > 100 µM | TGI (SK-OV-3 ovarian): > 100 µM | TGI (OVCAR-4 ovarian): > 100 µM | TGI (HCC-2998 colon): > 100 µM | TGI (MDA-MB-435): > 100 µM

C=C1c2nc3ccccc3n2C=C(c2ccc(Cl)cc2)N1c1ccccc1
TGI (U251 CNS): 44.8 µM | TGI (SF-539 CNS): 25.9 µM | TGI (OVCAR-5 ovarian): > 100 µM | TGI (KM12 colon): 24.7 µM | TGI (OVCAR-8 ovarian): 23.7 µM | TGI (K-562 leukemia): > 100 µM | TGI (OVCAR-3 ovarian): 38.5 µM | TGI (NCI-H460 lung): 24.9 µM | TGI (MCF7 breast): 25.7 µM | TGI (UACC-62 melanoma): 66.2 µM | TGI (SK-MEL-5 melanoma): > 100 µM | TGI (HOP-92 NSCLC): > 100 µM | TGI (TK-10 renal): 24.8 µM | TGI (UO-31 renal): 32.9 µM | TGI (CCRF-CEM leukemia): > 100 µM | TGI (786-0 renal): 26 µM | TGI (SN12C renal): > 100 µM | TGI (CAKI-1 renal): 39.4 µM | TGI (EKVX NSCLC): 45.2 µM | TGI (SNB-19 CNS): 19.6 µM | TGI (M14 melanoma): 36.4 µM | TGI (IGROV1 ovarian): 22.1 µM | TGI (COLO 205 colon): > 100 µM | TGI (MOLT-4 leukemia): > 100 µM | TGI (MALME-3M melanoma): 27 µM | TGI (BT-549 breast): 18.8 µM | TGI (HCT-15 colon): 24.5 µM | TGI (SF-295 CNS): 24 µM | TGI (HL-60(TB) leukemia): > 100 µM | TGI (NCI-H522 lung): 18.5 µM | TGI (HCT-116 colon): 33.7 µM | TGI (UACC-257 melanoma): 63 µM | TGI (DU-145 prostate): > 100 µM | TGI (SNB-75 CNS): 15.9 µM | TGI (SK-MEL-2 melanoma): > 100 µM | TGI (ACHN renal): 24.8 µM | TGI (A498 renal): > 100 µM | TGI (SW-620 colon): > 100 µM | TGI (LOX IMVI melanoma): > 100 µM | TGI (PC-3 prostate): > 100 µM | TGI (NCI-H23 lung): 23.9 µM | TGI (A549 NSCLC): 27.1 µM | TGI (RXF 393 renal): 49.5 µM | TGI (MDA-N): > 100 µM | TGI (SR leukemia): > 100 µM | TGI (NCI-H226 lung): 3.72 µM | TGI (SK-MEL-28 melanoma): 24 µM | TGI (NCI/ADR-RES ovarian): 29.8 µM | TGI (MDA-MB-231 breast): > 100 µM | TGI (RPMI-8226 leukemia): > 100 µM | TGI (SK-OV-3 ovarian): 34.7 µM | TGI (OVCAR-4 ovarian): 29.9 µM | TGI (HCC-2998 colon): 26 µM | TGI (MDA-MB-435): > 100 µM
